Results published in US20220195432A9 (priority 2020, published 2022).

System: SARS-CoV2
Assay: SARS-CoV2 infection of human ACE2 mice, paquinimod nasal drop group versus control
Type: in vivo
Details: human ACE2 mice, paquinimod nasal drop group compared with control group, FIG. 17

Structure (SMILES): CCc1cccc2c1c(O)c(C(=O)N(CC)c1ccccc1)c(=O)n2C [paquinimod]
- resistance to SRAS-CoV2: significantly more resistant
